The target in one test is T1, NK3-receptor (Cavia porcellus, UniProt P30098).
T1 construct: from tissue; host or cells: whole animal (Dunkin Hartley guinea pigs), in vivo
T1 sequence (P30098 1-440): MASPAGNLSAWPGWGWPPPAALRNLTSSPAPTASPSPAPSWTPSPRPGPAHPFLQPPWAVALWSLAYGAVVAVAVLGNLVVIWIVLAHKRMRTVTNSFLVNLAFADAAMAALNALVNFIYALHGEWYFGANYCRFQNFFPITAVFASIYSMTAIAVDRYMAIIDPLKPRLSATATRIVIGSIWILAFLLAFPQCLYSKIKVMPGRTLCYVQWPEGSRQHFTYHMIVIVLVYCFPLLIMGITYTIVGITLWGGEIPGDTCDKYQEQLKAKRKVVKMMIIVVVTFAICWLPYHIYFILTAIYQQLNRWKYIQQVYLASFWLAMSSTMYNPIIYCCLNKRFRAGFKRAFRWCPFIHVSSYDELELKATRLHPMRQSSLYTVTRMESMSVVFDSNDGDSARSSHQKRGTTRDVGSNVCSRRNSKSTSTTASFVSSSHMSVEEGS
Briefly: NK-3-receptor-antagonistic effectiveness in vivo, senktide-induced hypertension in guinea pigs. The following applies: guinea pig; for ID50 (iv), inhibition of blood pressure / ID50 (po), inhibition of blood pressure: senktide 0.4 μg/kg i.v.; for ID50 (iv), inhibition of blood pressure: intravenous administration; for ID50 (po), inhibition of blood pressure: oral administration. How it is done:
9. Determination of the NK-3-Receptor-Antagonistic Effectiveness of the Test Substances In Vivo (Reduction of Blood Pressure in Guinea-Pigs with Senktide-Induced Hypertension)
NK3 agonists increase the blood pressure in guinea pigs. The senktide-induced hypertension can be antagonized by administering compounds with NK3-antagonistic properties. Measuring the level of hypertension is indicative of the degree of activity of the test compounds. The effect of the tested compound is assessed in the same experiment to exclude an additional hypertensional effect.
Male Dunkin Hartley guinea pigs with a body weight between 450 and 550 g were anesthetized with Ketamin (200 mg/kg i.m.; Aescoket 10%) and the left carotid artery and left jugular vein were cannulated for blood pressure measurement and drug application, respectively. The animals were allowed to breathe spontaneously. Blood pressure was measured with a strain gauge transducer connected to a computer via an amplifier.
For oral administration, vehicle (1% methylcellulose) or test compound was administered in a dose volume of 5 ml/kg. Forty five minutes thereafter, anesthesia was induced and the carotid artery and jugular vein were cannulated.
For intravenous administration, the test compounds were dissolved in 40% hydroxypropyl-β-cyclodextrine (HPCD) containing 10% DMSO, diluted with saline and administered intravenously in cumulative dose ranges. A vehicle group of animals received the corresponding HPCD/DMSO solutions instead of the test compound. For oral administration, the test compound was suspended in 1% methylcellulose. A vehicle group of animals received the corresponding […] of the test compound.

The target in test [1] is T2, human NK3 receptor (Homo sapiens, UniProt P29371).
T2 sequence (P29371 1-465): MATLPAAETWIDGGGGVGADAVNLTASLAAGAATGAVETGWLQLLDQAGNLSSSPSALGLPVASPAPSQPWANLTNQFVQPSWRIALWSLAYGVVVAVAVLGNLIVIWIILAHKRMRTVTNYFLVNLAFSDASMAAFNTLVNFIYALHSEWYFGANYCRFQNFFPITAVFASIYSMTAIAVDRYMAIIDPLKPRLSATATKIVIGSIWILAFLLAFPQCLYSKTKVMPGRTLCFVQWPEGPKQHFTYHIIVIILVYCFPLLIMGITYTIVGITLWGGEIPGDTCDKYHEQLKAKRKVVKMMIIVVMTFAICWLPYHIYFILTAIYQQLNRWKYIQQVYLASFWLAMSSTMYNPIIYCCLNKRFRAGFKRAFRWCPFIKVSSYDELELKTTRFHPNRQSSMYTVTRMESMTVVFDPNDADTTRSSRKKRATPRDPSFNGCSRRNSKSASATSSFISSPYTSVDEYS
Briefly: Functional cellular test, Ca2+ measurements using aequorin for NK3 activity. The format is cell-based. Also noted: expressed in transfected cells; host or cells: cell line co-expressing mitochondrially targeted apoaequorin (CHO according to b76/b77). The settings on record: for Kb: read-out: pA2 data for NK3 (converted); for pA2 data for NK3: cell line with human NK3 receptor and apoaequorin, agonist senktide 5x10-8 M.

Test [2] addresses T2, human NK3 receptor. Briefly: Binding potency of the test substances to NK3-receptors in vitro ([3H]-SR 142801 displacement). The settings on record: human NK3-receptor in CHO cell membranes, [3H]-SR 142801 (osanetant), average of at least three measurements; for Ki: read-out: pKi, binding potency to NK3-receptors (converted). Also noted: expressed in transfected cells; host or cells: CHO cells (membrane preparation). In outline: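 [3H]-osanetant displacement on membranes from CHO cells stably expressing the human receptor, with bound ligand separated by filtration and counted by scintillation. Nonspecific binding defined with 1 μmol/l unlabeled osanetant. IC50 converted to Ki by Cheng-Prusoff and reported as pKi, averaged over measurements.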

Where [3] appears, read: iv, read-out: ID50 (iv), inhibition of blood pressure.

We go through ten molecules from patent US20070219214A1, “Dual NK2/NK3-antagonists, pharmaceutical compositions comprising them, and processes for their preparation” (Solvay pharmaceuticals GmbH, priority 2006, published 2007).

Like-named read-outs stand apart in the source and are kept apart here.

Regarding `CN(C)C(=O)C1(N2CCCCC2)CCN(CC[C@H](CN(C)C(=O)c2ccccc2)c2ccc(Cl)c(Cl)c2)CC1` [compound 1], the ED50 on NK3-receptor (setting [3]) amounted to 0.256 mg/kg; at NK3-receptor (po, read-out: ID50 (po), inhibition of blood pressure), 6.38 mg/kg. At human NK3 receptor [1], the Kb is 2.51 nM. For the same molecule, the Ki on human NK3 receptor [2] is 2.51 nM.
For `CN(C)C(=O)C1(N2CCCCC2)CCN(CC[C@H](CN(C)C(=O)C2CCCCC2)c2ccc(Cl)c(Cl)c2)CC1` [compound 3], the “pA2 data for NK3” value on human NK3 receptor [1] is on record as 8.2. Further, on human NK3 receptor [2], the “pKi, binding potency to NK3-receptors” value stood at 8.2.
For the molecule `CN(C)C(=O)C1(N2CCCCC2)CCN(CC[C@H](CN(C)C(=O)c2ccc(F)cc2)c2ccc(Cl)c(Cl)c2)CC1` [compound 4], at NK3-receptor, the “ID50 (iv), inhibition of blood pressure” value was found to be 0.7564 mg/kg and the “ID50 (po), inhibition of blood pressure” value is recorded as 2.3313 mg/kg. The “pA2 data for NK3” value on human NK3 receptor [1] is 8.2. Besides, the “pKi, binding potency to NK3-receptors” value at human NK3 receptor [2] amounted to 8.2.
Turning to `CN(C)C(=O)C1(N2CCCCC2)CCN(CC[C@H](CN(C)C(=O)c2ccc(O)cc2)c2ccc(Cl)c(Cl)c2)CC1` [compound 6, 1′-{(3S)-3-(3,4-dichlorophenyl)-4-[(4-hydroxybenzoyl)-(methyl)amino]butyl}-N,N-dimethyl-1,4′-bipiperidine-4′-carboxamide], at NK3-receptor (setting [3]), the ED50 amounted to 0.157 mg/kg. Moreover, at human NK3 receptor [1], the Kb is 2 nM. In addition, at human NK3 receptor [2], the Ki was 2 nM.
On to `CN(C)C(=O)C1(N2CCCCC2)CCN(CC[C@H](CN(C)C(=O)c2cc(C#N)c3ccccc3c2)c2ccc(Cl)c(Cl)c2)CC1` [compound 11], for which, on NK3-receptor, the “ID50 (iv), inhibition of blood pressure” value is on record as 1.0554 mg/kg and the “ID50 (po), inhibition of blood pressure” value turned out to be 10 mg/kg. Also, the “pA2 data for NK3” value on human NK3 receptor [1] amounted to 8.1. The “pKi, binding potency to NK3-receptors” value on human NK3 receptor [2] is reported as 7.9.
With `CN(C)C(=O)C1(N2CCCCC2)CCN(CC[C@H](CN(C)C(=O)c2ccc(F)cc2F)c2ccc(Cl)c(Cl)c2)CC1` [compound 13], at NK3-receptor, the “ID50 (iv), inhibition of blood pressure” value is 0.5013 mg/kg and the “ID50 (po), inhibition of blood pressure” value is less than 10 mg/kg. The “pA2 data for NK3” value at human NK3 receptor [1] worked out at 8.0. Moreover, the “pKi, binding potency to NK3-receptors” value at human NK3 receptor [2] turned out to be 7.4.
Turning to `CN(C)C(=O)C1(N2CCCCC2)CCN(CC[C@H](CN(C)C(=O)c2ccc(F)c(F)c2)c2ccc(Cl)c(Cl)c2)CC1` [compound 14], at NK3-receptor, the “ID50 (iv), inhibition of blood pressure” value came out at 0.5168 mg/kg and the “ID50 (po), inhibition of blood pressure” value was determined as 6.811 mg/kg. Further, at human NK3 receptor [1], the “pA2 data for NK3” value came out at 8.1.
As for `CN(C)C(=O)C1(N2CCCCC2)CCN(CC[C@H](CN(C)C(=O)c2cc(F)ccc2F)c2ccc(Cl)c(Cl)c2)CC1` [compound 15], on NK3-receptor, the “ID50 (iv), inhibition of blood pressure” value was determined as 0.3732 mg/kg. Besides, on human NK3 receptor [1], the “pA2 data for NK3” value amounted to 8.1.
As for `CN(C)C(=O)C1(N2CCCCC2)CCN(CCC(CN(C)C(=O)c2ccc(Cl)nc2)c2ccc(Cl)c(Cl)c2)CC1` (centres unmarked) [compound 18], at NK3-receptor (setting [3]), the ED50 amounted to 1.01 mg/kg. The Kb on human NK3 receptor [1] is 10 nM. In addition, the Ki on human NK3 receptor [2] was 5.01 nM.
Consider `CN(C)C(=O)C1(N2CCCCC2)CCN(CCC(CN(C)C(=O)c2cccnc2)c2ccc(Cl)c(Cl)c2)CC1` (centres unmarked) [compound 19], for which the ED50 on NK3-receptor (setting [3]) came to 0.39 mg/kg. Besides, the Kb on human NK3 receptor [1] is 50.1 nM. In addition, the Ki at human NK3 receptor [2] was 31.6 nM.
